Test results published in PubChem BioAssay (NCI).
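Dose response: 5 concentrations. Exposure: 48 h. Format: 96-well plates. Endpoint: linear interpolation; highest concentration if not reached. TGI is the concentration that stops growth completely.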

Legend:
Assay in all cases: growth of human tumour cells (NCI), 48 h
HOP-62 NSCLC = test system: HOP-62 NSCLC
UACC-257 melanoma = test system: UACC-257 melanoma
M19-MEL melanoma = test system: M19-MEL melanoma
NCI-H522 lung = test system: NCI-H522 lung
DLD-1 colon = test system: DLD-1 colon
HL-60(TB) leukemia = test system: HL-60(TB) leukemia
KM20L2 colon = test system: KM20L2 colon
KM12 colon = test system: KM12 colon
NCI-H460 lung = test system: NCI-H460 lung
RXF 393 renal = test system: RXF 393 renal
DMS 114 small cell lung = test system: DMS 114 small cell lung
MOLT-4 leukemia = test system: MOLT-4 leukemia
COLO 205 colon = test system: COLO 205 colon
U251 CNS = test system: U251 CNS
HOP-18 NSCLC = test system: HOP-18 NSCLC
CCRF-CEM leukemia = test system: CCRF-CEM leukemia
SK-MEL-28 melanoma = test system: SK-MEL-28 melanoma
SF-539 CNS = test system: SF-539 CNS
SW-620 colon = test system: SW-620 colon
HOP-92 NSCLC = test system: HOP-92 NSCLC
SK-OV-3 ovarian = test system: SK-OV-3 ovarian
A549 NSCLC = test system: A549 NSCLC
HCT-15 colon = test system: HCT-15 colon
HCC-2998 colon = test system: HCC-2998 colon
SK-MEL-5 melanoma = test system: SK-MEL-5 melanoma
OVCAR-5 ovarian = test system: OVCAR-5 ovarian
SNB-19 CNS = test system: SNB-19 CNS
RXF-631 renal = test system: RXF-631 renal
UO-31 renal = test system: UO-31 renal
786-0 renal = test system: 786-0 renal
DMS 273 small cell lung = test system: DMS 273 small cell lung
TK-10 renal = test system: TK-10 renal
OVCAR-4 ovarian = test system: OVCAR-4 ovarian
SN12C renal = test system: SN12C renal
SF-295 CNS = test system: SF-295 CNS
LXFL 529 NSCLC = test system: LXFL 529 NSCLC
SNB-75 CNS = test system: SNB-75 CNS
CAKI-1 renal = test system: CAKI-1 renal
XF 498 CNS = test system: XF 498 CNS
SF-268 CNS = test system: SF-268 CNS
ACHN renal = test system: ACHN renal
HT29 colon = test system: HT29 colon
IGROV1 ovarian = test system: IGROV1 ovarian
OVCAR-8 ovarian = test system: OVCAR-8 ovarian
A498 renal = test system: A498 renal
LOX IMVI melanoma = test system: LOX IMVI melanoma
EKVX NSCLC = test system: EKVX NSCLC
UACC-62 melanoma = test system: UACC-62 melanoma
K-562 leukemia = test system: K-562 leukemia
OVCAR-3 ovarian = test system: OVCAR-3 ovarian
MALME-3M melanoma = test system: MALME-3M melanoma
SK-MEL-2 melanoma = test system: SK-MEL-2 melanoma
NCI-H226 lung = test system: NCI-H226 lung
M14 melanoma = test system: M14 melanoma
SNB-78 CNS = test system: SNB-78 CNS
RPMI-8226 leukemia = test system: RPMI-8226 leukemia
HCT-116 colon = test system: HCT-116 colon
NCI-H23 lung = test system: NCI-H23 lung

Measured: TGI

CCN(CC)/C(=C\Cl)Nc1ccccn1
> 100 µM: all assays above
